{
  "source": "patent JP2022155560A",
  "about": "“スガマデクスの光分解抑制方法” (Fuji Pharma Co Ltd, priority 2021, dated 2022)",
  "key": {"[1]": {"assay": "Photostability of sugammadex sodium solution in glass containers with or without light-cutting film (Example 1, HPLC)", "format": "physicochemical", "details": "for total amount of substances other than sugammadex: n=3"}, "[2]": {"assay": "Formation of sugammadex photodegradant (disulfide, printed ジスルフィド体) on light irradiation (Example 2, HPLC)", "format": "physicochemical", "details": "after light irradiation, n=3"}, "[3]": {"details": "after light irradiation (1,200,000 lux·h, 280 W·h/m2), UVcut 500 film compared with UVcut 400 film"}, "[4]": {"details": "after light irradiation (1,200,000 lux·h, 280 W·h/m2), film-wrapped samples (UVcut 400 or UVcut 500), compared with no film wrapping"}},
  "data": [
    {"compound": "O=C([O-])CCSC[C@H]1O[C@@H]2O[C@H]3[C@H](O)[C@@H](O)[C@@H](O[C@H]4[C@H](O)[C@@H](O)[C@@H](O[C@H]5[C@H](O)[C@@H](O)[C@@H](O[C@H]6[C@H](O)[C@@H](O)[C@@H](O[C@H]7[C@H](O)[C@@H](O)[C@@H](O[C@H]8[C@H](O)[C@@H](O)[C@@H](O[C@H]9[C@H](O)[C@@H](O)[C@@H](O[C@H]1[C@H](O)[C@H]2O)O[C@@H]9CSCCC(=O)[O-])O[C@@H]8CSCCC(=O)[O-])O[C@@H]7CSCCC(=O)[O-])O[C@@H]6CSCCC(=O)[O-])O[C@@H]5CSCCC(=O)[O-])O[C@@H]4CSCCC(=O)[O-])O[C@@H]3CSCCC(=O)[O-].[Na+].[Na+].[Na+].[Na+].[Na+].[Na+].[Na+].[Na+]", "note": "[スガマデクス, octakis(6-S-(2-carboxyethyl)-6-thio)cyclomaltooctaose octasodium salt]", "values": [
      {"measurement": "effect of suppressing increase of photodegradation products", "setting": "[1]; [3]", "value": "顕著に高かった"},
      {"measurement": "purity of sugammadex", "setting": "[1]; [3]", "value": "純度が高く"},
      {"measurement": "increase in total amount of substances other than sugammadex", "setting": "[1]; [4]", "value": "増大が抑えられており"},
      {"measurement": "residual rate of sugammadex", "setting": "[1]; [4]", "value": "残存率が高かった"},
      {"measurement": "total amount of substances other than sugammadex", "setting": "[1]; after light irradiation (1,200,000 lux·h, 280 W·h/m2), no film wrapping", "value": 5.12, "unit": "%"},
      {"measurement": "total amount of substances other than sugammadex", "setting": "[1]; before light irradiation, no film wrapping, 100 mg/mL aqueous solution, pH 7-8", "value": 2.14, "unit": "%"},
      {"measurement": "photodegradation of sugammadex", "setting": "[1]; chromatograms before vs after light irradiation, no film wrapping", "value": "光照射により分解されたことが確認された"},
      {"measurement": "formation of sugammadex disulfoxide (スガマデクスのジスルフィド体 in the source)", "setting": "[2]; light up to 400 nm cut, relative to sample without film wrapping", "value": "フィルム包装なしのサンプルの半分程度"},
      {"measurement": "formation of sugammadex disulfoxide (スガマデクスのジスルフィド体 in the source)", "setting": "[2]; light up to 500 nm cut", "value": "ほとんど生成されていなかった"}
    ]}
  ]
}
